Test [1] relates to carrageenan induced hyperalgesia. Nature of the test: carrageenan induced hyperalgesia, Randall Selitto Test. To be noted: 1000 μg/kg s.c.; 1 hour and 6 hours after the injection, compared to controls; p<0.05. Type of test: in vivo, rat. Here is the method:
Nociceptive thresholds were measured in the rats given oxytocin 1000 μg/kg s.c. and their controls. This was done by determining the response to mechanical stimulation using the Randall Selitto Test (Ugo Basile, type 7200, Italy). The mechanical stimulus was applied to the dorsal surface of the hindpaw by a wedged-shape pusher at a loading rate of 48 g/s and the pressure required to initiate the struggle response was measured. All rats were trained on three consecutive days before testing.

The test system of test [2] is cyclophosphamide-induced cystitis. Nature of the test: cyclophosphamide-induced cystitis, plasma protein extravasation (Evans blue). The class given is in vivo, rat. To be noted: oxytocin pre-treatment, 4 h. How it is done:
Cyclophosphamide (100 mg/kg) was injected i.p. in barbiturate-anaesthetised rats for the induction of acute cystitis. Control animals were injected with an appropriate volume (4 ml/kg) of the vehicle (154 mmol/l NaCl). Five min prior to the administration of cyclophosphamide or vehicle all animals were injected i.v. with the protein marker, Evans blue (20 mg/kg). At 4 h, when increases in vascular permeability have reached maximum values in this model (Aramori I, Zenkoh J, Morikawa N, O'Donnell N. Asano M, Nakamur K et al. Novel subtype-selective nonpeptide bradykinin antagonists FR167334 and FR173657. Mol Pharmacol 1997; 51: 171-176), the uriny bladder was excised following exsanguination, and the total tissue content of Evans blue was determined as above.
Plasma protein extravasation in the urinary bladder of anaesthetised rats was made 4 h after i.p. injection of cyclophosphamide (100 mg/kg). Control animals were treated with appropriate volumes of the vehicles ([…] silicone oil or 4 ml/kg 154 mmol/l NaCl solution, respectively). Oxytocin (1 mg/ml) was injected s. c. 1 h before administration of xylene or cyclophosphamide while control rats received DMSO (0.5 ml/kg, s. c.). Plasma protein extravasation is given as total tissue content of the protein marker, Evans blue, given i. v. (20 mg/kg) 5 min prior to the induction of cystitis. […]

Test [3] deals with N-acetyl-LTE4. Nature of the test: OVA-induced N-acetyl-LTE4 synthesis in BN rats (experimental asthma model). The class given is in vivo, rat. Particulars: for biliary excretion of N-acetyl-LTE4: 1.0 mg/kg by aerosol. Here is the method:
Inbred male BN rats, 7-9 weeks old, were obtained from Harlan Sprague-Dawley. Active sensitisation was performed by subcutaneous injection of 1 ml of saline containing 1 mg of ovalbumin and 3.48 mg of aluminum hydroxide. At the same time, 0.3 ml of Bordetella pertussis vaccine containing heat-killed organisms was given intraperitoneally as an adjuvant. Animals were studied 14-21 days after sensitisation.
Two groups of rats (n=3 for each group) were lightly anaesthetised with xylazine (7 mg/kg) and pentobarbital (30 mg/kg ip) before endotracheal intubation. Each rat then received either saline or 1.0 mg/kg oxytocin (1.0 mg/ml) by aerosol over a period of 5 min using a disposable nebulizer at a flow rate of […] and an output of 0.15 ml/min. Seventeen hours later, the animals were again anaesthetised, and these treatments were repeated. After a further hour, each of the rats was challenged with aerosolised 5% OVA in saline for 5 min.
Before the second treatment with oxytocin or saline, the rats were anaesthetised with urethane (1 g/kg ip, 50% wt/vol). After blind orotracheal intubation (6 cm of PE-240 polyethylene catheter), the common bile duct was exposed and cannulated (15 cm of PE-20 polyethylene tubing) after ligation of duodenal end. The rats were allowed to stabilise for a period of 2 h before challenge with OVA. Bile was collected for 1 h before and for 2 consecutive periods of 1 h after OVA challenge ([…]). All bile samples were collected on ice in 1.5-ml Eppendorf tubes. The bile was kept frozen at […] before analysis.
Bile samples were thawed, and methanol was added to 0.3-ml aliquots to give a final concentration of 80%. […] Ultraviolet absorbance was monitored by a variable wavelength ultraviolet detector. […]
Column fractions were evaporated to dryness in a centrifuge under vacuum, and the residues were dissolved in phosphate-buffered saline (0.1 ml at pH 8.2). N-acetyl-LTE4 was measured in each fraction by using a monoclonal antibody directed against LTC4, which cross-reacted with N-acetyl-LTE4. […]

Test [4] relates to collagenase-induced cutaneous inflammation. Briefly: collagenase-induced cutaneous plasma protein extravasation. Type of test: in vivo, guinea-pig. How it is done: One hour after anaesthesia of guinea-pigs with urethane (1.6 g/kg, i.p.), Evans blue (20 mg/kg) was injected into a jugular vein. Collagenase ([…]) or its solvent ([…] 154 mmol/l NaCl solution) was injected s. c. into the dorsal skin. All doses of collagenase as well as the solvent were injected on both sides of the spine in randomised order. The ensuing plasma protein extravasation was determined at 60 min by extraction of Evans blue (see above) from the dorsal skin.
Oxytocin was dissolved and diluted in DMSO for all experiments involving s. c. injection in volumes of 1.0 ml/kg. All pretreatments were given 1 h prior to the induction of the respective model of inflammation. All animal experiments approved of by Karolinska institutets animal committe.
Oxytocin was a gift from Poly Peptides Copenhagen, Denmark and was dissolved in phosphate-buffered saline (composition in mmol/l: NaCl 136.9, KCl 2.7, KH2PO4 1.5, Na2HPO4 7.7). Cyclophosphamide monohydrate and collagenase from Clostridium histolyticum (type II, clostridiopeptidase A, EC 3.4.24.3) were obtained from Sigma and were dissolved in 154 mmol/l NaCl.

This is an account of results in patent US20060234919A1, “Use” (priority 2001, published 2006).

As for Oxytocin, in test [1], the “nociceptive threshold, response to mechanical stimulation” value is “increase in withdrawal latency”. In addition, the “plasma protein extravasation, Evans blue accumulation in the bladder” value in test [2] (cyclophosphamide 100 mg/kg i.p., cyclophosphamide alone 9.76±4.12) was 2.56 ± 1.28 mg; in test [2] (rats given the vehicle of cyclophosphamide) it was 2.11 ± 1.37 mg. In addition, the “biliary excretion of N-acetyl-LTE4” value was 4.3 ± 2.1 pmol/h in test [3] (early response 0-1 h after OVA challenge, control 6.9±1.8) and 2.6 ± 0.8 pmol/h in test [3] (late response 5-6 h after OVA challenge, control 5.2±0.9). Besides, the “levels of N-acetyl-LTE4 in oxytocin-treated vs control groups” value in test [3] (before OVA challenge) was “almost identical”. Moreover, the “effect on collagenase-induced plasma protein extravasation” value is on record as “no effect” in test [4] (1 ug/ml oxytocin, 10 and 30 mg collagenase); “attenuated the effect” in test [4] (s.c. pre-treatment 1 mg/ml, higher doses of the enzyme). In test [4] (s.c. pre-treatment 1 mg/ml, 10 mg collagenase, without oxytocin 3.5±1.0), the “cutaneous plasma protein extravasation, Evans blue accumulation” value was determined as 2.2 ± 0.9 mg.
